Experimental data published in US20100173873A1, “TREATMENT OF METASTASIZED TUMORS” (Novartis Vaccines and Diagnostics, Inc., priority 2005, published 2010).
“Also recorded” adds a separate entry of the source.

How the values were obtained:
pFLT3 in MV4;11 tumors = assay: Target modulation in vivo, pFLT3 in MV4;11 tumors; parameters: species or system SCID-NOD mice; settings: 10 mg/kg/d p.o., 48 hours post dose
[1] = system: other kinases in the PI3K/Akt and MAPK(K) pathways; assay: Selectivity test against other kinases; assay type: biochemical; settings: negligible activity
PC-3M-luc tumor cells = assay: PC-3M-luc bone metastatic prostate model; assay type: in vivo, nude mice
Experimental: Cell lines. Metastatic human prostate cell line PC-3M expressing null p53, del PTEN, VEGFR, FGFR and stably transfected with a construct of luciferase were obtained under a licensing agreement with Xenogen.
In vivo efficacy studies. […]. Animals received sterile rodent chow and water ad libitum and were housed in sterile filter-top cages with 12 hour light/dark cycles. All experiments were conducted under the guidelines of the Association for Assessment and Accreditation of Laboratory Animal Care International. PC-3M luc bone metastatic model. Human prostate cancer cell line PC-3M-luc cells (1.5×10^6 cells) stably transfected with a construct of luciferase were injected via intracardiac injections. Bioluminescent imaging (Xenogen's IVIS® imaging system) was used to non-invasively monitor the in vivo growth and metastasis of PC-3M-luc tumors after cell inoculation. Nearly all PC-3M-luc tumor cell-injected animals developed prostate lesions, which were mainly localized in the femur, and mandibles. […]. Mice were monitored daily and were euthanized when moribund.
Immunohistochemistry. Bone (femurs, mandible) samples were decalcified (Protocol™, Fisher Diagnostics, Middletown, Va.). Paraffin blocks were sectioned to […] thickness and placed on positively charged glass slides. Tissues were stained with hematoxylin and eosin for general tissue morphology and identification of PC-3M cells in bone.
Nude mice were inoculated with PC-3M-Luc cells intracardiacally with 1.5×10^6 cells. […]. The PC-3M-luc cell lines were purchased from Xenogen and the mice were imaged using Xenogen's IVIS® imaging system.

P-glycoprotein = P-glycoprotein (Homo sapiens, UniProt P08183); assay: P-glycoprotein substrate status; assay type: in vitro ADME
P-glycoprotein, sequence (P08183 whole entry): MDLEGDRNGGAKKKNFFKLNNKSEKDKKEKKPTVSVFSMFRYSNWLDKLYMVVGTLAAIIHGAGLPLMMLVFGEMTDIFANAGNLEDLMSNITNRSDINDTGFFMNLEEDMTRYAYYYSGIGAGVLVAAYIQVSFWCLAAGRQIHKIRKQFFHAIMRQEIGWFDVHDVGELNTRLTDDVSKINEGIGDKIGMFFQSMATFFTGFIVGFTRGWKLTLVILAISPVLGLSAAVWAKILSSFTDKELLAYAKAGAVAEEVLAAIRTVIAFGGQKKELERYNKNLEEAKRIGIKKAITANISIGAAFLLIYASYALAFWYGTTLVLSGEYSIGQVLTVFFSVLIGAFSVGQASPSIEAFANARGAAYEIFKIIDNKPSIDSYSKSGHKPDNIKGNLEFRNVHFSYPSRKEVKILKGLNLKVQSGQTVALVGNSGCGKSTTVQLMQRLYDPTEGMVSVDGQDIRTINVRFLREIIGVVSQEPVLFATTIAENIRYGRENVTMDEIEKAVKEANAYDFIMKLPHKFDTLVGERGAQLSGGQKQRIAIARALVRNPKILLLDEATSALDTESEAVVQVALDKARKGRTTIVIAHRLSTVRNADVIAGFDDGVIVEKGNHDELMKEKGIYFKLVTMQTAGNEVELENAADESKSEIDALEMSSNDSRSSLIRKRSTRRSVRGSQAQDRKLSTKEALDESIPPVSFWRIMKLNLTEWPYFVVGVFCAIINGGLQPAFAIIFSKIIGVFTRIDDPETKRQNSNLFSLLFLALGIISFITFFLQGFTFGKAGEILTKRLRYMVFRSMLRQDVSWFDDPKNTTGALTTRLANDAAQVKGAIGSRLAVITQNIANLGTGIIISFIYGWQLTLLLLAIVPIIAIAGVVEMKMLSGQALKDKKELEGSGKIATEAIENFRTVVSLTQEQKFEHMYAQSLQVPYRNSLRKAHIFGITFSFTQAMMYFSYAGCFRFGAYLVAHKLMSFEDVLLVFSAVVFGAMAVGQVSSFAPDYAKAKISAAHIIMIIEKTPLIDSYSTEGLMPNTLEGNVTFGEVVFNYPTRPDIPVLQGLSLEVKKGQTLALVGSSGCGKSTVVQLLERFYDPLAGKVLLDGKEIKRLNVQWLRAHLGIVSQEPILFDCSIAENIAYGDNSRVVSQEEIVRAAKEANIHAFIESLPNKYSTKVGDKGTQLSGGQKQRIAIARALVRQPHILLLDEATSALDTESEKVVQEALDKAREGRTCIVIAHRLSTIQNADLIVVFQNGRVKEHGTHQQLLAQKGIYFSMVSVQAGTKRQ

Raf = assay: In vitro kinase assay, Raf; assay type: biochemical; settings: RTK table
pERK in MV4;11 cells = pERK in MV4;11 cells (flow cytometry, Western blot); settings: Homo sapiens, MV4-11, 3 h, read-out: Inhibition of pERK
Akt⅓ = assay: In vitro kinase assay, Akt; assay type: biochemical; settings: RTK table
ERK-½ = assay: In vitro kinase assay, ERK; assay type: biochemical; settings: RTK table
pERK in MV4;11 tumors = assay: Target modulation in vivo, pERK in MV4;11 tumors; parameters: species or system SCID-NOD mice; settings: 10 mg/kg/d p.o.
Experimental: […]. […] For in vivo target modulation analyses, resected tumors were flash frozen, pulverized and stored at −70° C. prior to lysis with 150 mM NaCl, 1.5 mM MgCl2, 50 mM Hepes, pH 7.5, 10% glycerol, 1.0% Triton X-100, 1 mM EGTA, 50 mM NaF, 1 mM Na3VO4, 2 mM Pefabloc (Roche), and complete protease inhibitor cocktail (Roche). Protein content of the lysates was determined using the BCA assay (Bio-Rad, Hercules, Calif.). Western blot analysis for pERK was performed with a mouse antibody to pERK (1:1000, Cell Signaling, Beverly, Mass.) and incubated at 4° C. overnight. Total ERK level was evaluated by re-probing with antibody against total ERK (Cell Signaling). The membranes were then incubated for 1 hour at RT with 1:5000 horseradish peroxidase-conjugated anti-rabbit IgG (Jackson Immunoresearch, West Grove, Pa.). […] FLT3 or STAT5 phosphorylation was measured by probing with an anti-phosphotyrosine antibody (anti-pFLT3 antibody from Cell Signaling, and anti-pSTAT5 antibody from Upstate). Proteins were detected using enhanced chemiluminescence (ECL; Amersham Biosciences, Buckinghamshire, England) and visualized after exposure to Kodak film. Scanning densitometry was performed to quantify band intensities. […]
[…]. […] Tumors that were harvested after selected time points, were homogenized and analyzed for pFLT3 and pSTAT5 levels by IP/Western blot. […]

pSTAT5 in MV4;11 cells = pSTAT5 in MV4;11 cells (flow cytometry, Western blot); settings: Homo sapiens, MV4-11, 3 h, read-out: Inhibition of pSTAT5
[2] = system: VEGF production in MV4;11 cells; assay: VEGF ELISA on MV4;11 culture supernatants; assay type: cell-based; settings: Homo sapiens; MV4;11, 48 hours; read-out: EC50 inhibition of VEGF production

Question: For `CN1CCN(c2ccc3nc(-c4c(N)c5c(F)cccc5[nH]c4=O)[nH]c3c2)CC1` [Compound 1, 4-Amino-5-fluoro-3-[6-(4-methylpiperazin-1-yl)-1H-benzimidazol-2-yl]quinolin-2(1H)-one], which Phospho-FLT3 in tumors (pFLT3 in MV4;11 tumors) is on record?
Answer: returned closer to baseline levels

Question: And the IC50 [1]?
Answer: > 10 µM

Question: And the “Photon counts / metastatic growth of PC-3M-luc cells” value (PC-3M-luc tumor cells; 50 mg/kg p.o. daily, vs. vehicle)?
Answer: trend to inhibit metastatic growth; also recorded: trend of decreased photon count; also recorded: trend to inhibit PC-3M-luc photon counts

Question: And the “Efficacy compared with taxol (15 mg/kg)” value (PC-3M-luc tumor cells; 50 mg/kg/d p.o.)?
Answer: more effective than taxol treatment

Question: What about the P-GP substrate status (P-glycoprotein) of the same molecule?
Answer: not a P-GP substrate

Question: What about the IC50 (Raf) of the same molecule?
Answer: > 10 µM

Question: And the inhibition at 0.1 µM (pERK in MV4;11 cells)?
Answer: > 50%

Question: What about the IC50 (Akt⅓) of the same molecule?
Answer: > 10 µM

Question: What about the IC50 (ERK-½) of the same molecule?
Answer: > 10 µM

Question: And the “pERK levels in tumors” value (pERK in MV4;11 tumors)?
Answer: Decreases in pERK levels

Question: And the inhibition at 0.1 µM (pSTAT5 in MV4;11 cells)?
Answer: > 50%

Question: What about the EC50 [2] of the same molecule?
Answer: 0.001 to 0.01 µM
